Experimental data from US6737383B1, “Herbicidal oxadiazolidines” (priority 1999, dated 2004).

Key:
smallflower flatsedge = test: Test B flood test smallflower flatsedge; assay type: in vivo, Cyperus difformis; details: Rate 500 g/ha, Pre-emergence section of Table B; 0 to 10 scale (0 no effect, 10 complete control)
In short: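 Flood test on plants grown to the 2-leaf stage; treated plants kept in greenhouse twelve to sixteen days, then visually rated against controls on a 0 (no effect) to 10 (complete control) scale.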

purple nutsedge = test: Test B pre/postemergence purple nutsedge; assay type: in vivo, Cyperus rotundus; details: for Nutsedge plant response rating: Postemergence; for Plant response rating, Nutsedge: Preemergence
In short: (§1)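 Response is a visual 0-to-10 score relative to untreated plants, where 0 means no effect and 10 means complete control, taken twelve to sixteen days after application. Treatments went onto soil at planting and onto foliage of 1- to 4-leaf plants, using a surfactant-containing non-phytotoxic solvent.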

wheat = test: Test B pre/postemergence wheat; assay type: in vivo, Triticum aestivum; details: for Wheat plant response rating: Postemergence; for Plant response rating, Wheat: Preemergence
In short: as §1

blackgrass = test: Test B pre/postemergence blackgrass; assay type: in vivo, Alopecurus myosuroides; details: for Blackgrass plant response rating: Postemergence; for Plant response rating, Blackgrass: Preemergence
In short: as §1

rape = test: Test B pre/postemergence rape; assay type: in vivo, Brassica napus; details: for Rape plant response rating: Postemergence; for Plant response rating, Rape: Preemergence
In short: as §1

giant foxtail = test: Test B pre/postemergence giant foxtail; assay type: in vivo, Setaria faberii; details: for Giant foxtail plant response rating: Postemergence; for Plant response rating, Giant foxtail: Preemergence
In short: as §1

morningglory = test: Test B pre/postemergence morningglory; assay type: in vivo, Ipomoea hederacea; details: for Morningglory plant response rating: Postemergence; for Plant response rating, Morningglory: Preemergence
In short: as §1

velvetleaf = test: Test B pre/postemergence velvetleaf; assay type: in vivo, Abutilon theophrasti; details: for Velvetleaf plant response rating: Postemergence; for Plant response rating, Velvetleaf: Preemergence
In short: as §1

pigweed = test: Test B pre/postemergence pigweed; assay type: in vivo, Amaranthus retroflexus; details: for Redroot pigweed plant response rating: Postemergence; for Plant response rating, Redroot pigweed: Preemergence
In short: as §1

wild oat = test: Test B pre/postemergence wild oat; assay type: in vivo, Avena fatua; details: for Wild oats plant response rating: Postemergence; for Plant response rating, Wild oats: Preemergence
In short: as §1

[1] = Rate 125 g/ha, scale of 0 to 10 where 0 is no effect and 10 is complete control
[2] = Rate 1000 g/ha, scale 0 to 10 (0 no effect, 10 complete control)
[3] = Rate 500 g/ha, scale of 0 to 10 where 0 is no effect and 10 is complete control
[4] = Rate 250 g/ha, scale 0 to 10, 0 is no effect, 10 is complete control
[5] = Rate 500 g/ha, scale 0 to 10, 0 is no effect, 10 is complete control

COC(=O)C(CCO)n1c(=O)on(C(=O)N(c2ccc(Cl)cc2)C(C)C)c1=O (stereo not shown) [Compound 679]
5: Plant response rating, Blackgrass (blackgrass; [2]) | Giant foxtail plant response rating (giant foxtail; [2])
1: Blackgrass plant response rating (blackgrass; [2]) | Plant response rating, Redroot pigweed (pigweed; [3])
6: Plant response rating, Redroot pigweed (pigweed; [2])
0: S. Flatsedge plant response rating (smallflower flatsedge) | Nutsedge plant response rating (purple nutsedge; [1]) | Nutsedge plant response rating (purple nutsedge; [2]) | Plant response rating, Nutsedge (purple nutsedge; [1]) | Plant response rating, Nutsedge (purple nutsedge; [3]) | Nutsedge plant response rating (purple nutsedge; [4]) | Nutsedge plant response rating (purple nutsedge; [5]) | Wheat plant response rating (wheat; [1]) | Plant response rating, Wheat (wheat; [1]) | Plant response rating, Wheat (wheat; [3]) | Wheat plant response rating (wheat; [4]) | Wheat plant response rating (wheat; [5]) | Plant response rating, Wheat (wheat; [2]) | Blackgrass plant response rating (blackgrass; [1]) | Plant response rating, Blackgrass (blackgrass; [1]) | Plant response rating, Blackgrass (blackgrass; Rate 250 g/ha, scale 0 to 10 (0 no effect, 10 complete control)) | Plant response rating, Blackgrass (blackgrass; [3]) | Blackgrass plant response rating (blackgrass; [4]) | Blackgrass plant response rating (blackgrass; [5]) | Rape plant response rating (rape; [1]) | Rape plant response rating (rape; [2]) | Plant response rating, Rape (rape; [1]) | Plant response rating, Rape (rape; [3]) | Rape plant response rating (rape; [4]) | Rape plant response rating (rape; [5]) | Plant response rating, Rape (rape; [2]) | Giant foxtail plant response rating (giant foxtail; [1]) | Plant response rating, Giant foxtail (giant foxtail; [1]) | Giant foxtail plant response rating (giant foxtail; [4]) | Morningglory plant response rating (morningglory; [1]) | Plant response rating, Morningglory (morningglory; [1]) | Plant response rating, Morningglory (morningglory; [3]) | Morningglory plant response rating (morningglory; [4]) | Plant response rating, Morningglory (morningglory; [2]) | Velvetleaf plant response rating (velvetleaf; [1]) | Plant response rating, Velvetleaf (velvetleaf; [1]) | Plant response rating, Velvetleaf (velvetleaf; [3]) | Velvetleaf plant response rating (velvetleaf; [4]) | Velvetleaf plant response rating (velvetleaf; [5]) | Plant response rating, Velvetleaf (velvetleaf; [2]) | Redroot pigweed plant response rating (pigweed; [1]) | Plant response rating, Redroot pigweed (pigweed; [1]) | Redroot pigweed plant response rating (pigweed; [4]) | Redroot pigweed plant response rating (pigweed; [5]) | Wild oats plant response rating (wild oat; [1]) | Plant response rating, Wild oats (wild oat; [1]) | Plant response rating, Wild oats (wild oat; [3]) | Wild oats plant response rating (wild oat; [4]) | Wild oats plant response rating (wild oat; [5]) | Plant response rating, Wild oats (wild oat; [2])
4: Giant foxtail plant response rating (giant foxtail; [5])
2: Morningglory plant response rating (morningglory; [2]) | Morningglory plant response rating (morningglory; [5]) | Redroot pigweed plant response rating (pigweed; [2])
8: Plant response rating, Giant foxtail (giant foxtail; [3]) | Plant response rating, Giant foxtail (giant foxtail; [2])
